Tests used:
[1] = Oral pharmacokinetics in male CD‐1 mouse; type: in vivo
Procedure: (§1) Male CD‐1 mice, Han Wistar rats or beagle dogs were administered GSK716 as a suspension in 1% w/v aqueous methylcellulose via oral gavage at doses of 1 mg/kg (dog) or 10, 30 and 100 mg/kg (mouse, rat). Blood samples were taken into EDTA, diluted and mixed with acetonitrile containing internal standard (alprazolam) and centrifuged to precipitate proteins. Aliquots of the resultant supernatant were analysed by LC‐MS/MS, and concentrations of GSK716 in blood were determined. Non‐compartmental pharmacokinetic analysis (NCA) was carried out using Phoenix WinNonLin 6.3 (Certara L.P.). Free drug was measured in Z α1‐antitrypsin transgenic mice by dialysing tissue samples in rapid equilibrium dialysis cassettes.

NK1 (TACR1) = NK1 (TACR1) (Homo sapiens, UniProt P25103); assay: Off‐target panel: NK1 (TACR1); type: cell-based; details: Antagonist, read-out: Mean (PXC50)
Chain of NK1 (TACR1) (P25103 whole entry, species assumed): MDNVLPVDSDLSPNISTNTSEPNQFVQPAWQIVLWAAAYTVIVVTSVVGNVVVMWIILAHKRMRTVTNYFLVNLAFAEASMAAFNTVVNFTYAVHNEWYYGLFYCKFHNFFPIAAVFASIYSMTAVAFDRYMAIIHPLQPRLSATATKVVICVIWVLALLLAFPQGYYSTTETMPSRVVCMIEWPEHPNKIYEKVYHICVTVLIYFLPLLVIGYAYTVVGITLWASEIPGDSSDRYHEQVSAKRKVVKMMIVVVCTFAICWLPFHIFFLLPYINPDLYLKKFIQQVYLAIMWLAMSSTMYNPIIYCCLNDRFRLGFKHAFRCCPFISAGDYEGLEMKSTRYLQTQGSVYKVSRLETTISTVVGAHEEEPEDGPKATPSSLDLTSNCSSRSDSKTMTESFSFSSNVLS
Procedure: (§2) GSK716 selectivity and PK properties were profiled in order to investigate the suitability of GSK716 for progression into in vivo studies and the potential for taking it forward as a clinical candidate for testing in humans. Since GSK716 results in loss of inhibitory activity of α1‐antitrypsin, the effect of the compound was assessed on other closely related serpins. […] Furthermore, there were no off‐target effects in a panel of assays considered predictive of known safety liabilities that precluded further development of GSK716 (Table EV1).

Serotonin 5HT2B = Serotonin 5HT2B (Homo sapiens, UniProt P41595); assay: Off‐target panel: Serotonin 5HT2B (DRX); type: cell-based
Chain of Serotonin 5HT2B (P41595 whole entry): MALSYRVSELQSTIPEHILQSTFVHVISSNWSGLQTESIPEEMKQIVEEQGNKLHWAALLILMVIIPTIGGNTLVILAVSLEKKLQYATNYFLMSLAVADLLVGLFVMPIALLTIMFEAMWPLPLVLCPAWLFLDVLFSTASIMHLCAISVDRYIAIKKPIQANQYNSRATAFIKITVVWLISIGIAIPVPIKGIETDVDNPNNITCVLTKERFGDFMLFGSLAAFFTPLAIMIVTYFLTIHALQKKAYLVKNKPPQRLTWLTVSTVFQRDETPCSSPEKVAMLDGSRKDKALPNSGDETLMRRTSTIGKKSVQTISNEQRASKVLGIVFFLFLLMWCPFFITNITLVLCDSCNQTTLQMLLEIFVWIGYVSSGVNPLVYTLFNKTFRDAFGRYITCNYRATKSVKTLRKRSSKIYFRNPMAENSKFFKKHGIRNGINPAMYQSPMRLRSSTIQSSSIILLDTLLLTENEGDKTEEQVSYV
Procedure: as §2

KCNQ1/minK = KCNQ1/minK (Homo sapiens, UniProt P51787); assay: cell-based
Procedure: as §2

OPRK1 = OPRK1 (Homo sapiens, UniProt P41145); assay: Off‐target panel: OPRK1; type: cell-based
Procedure: as §2

α1‐antitrypsin = target: T1, α1‐antitrypsin (Homo sapiens, UniProt P01009, E366K); assay: Intrahepatic α1‐antitrypsin by ELISA in Z α1‐antitrypsin transgenic mice; type: in vivo, mouse
T1 construct: random insertion of the human Z α1‐antitrypsin gene; from tissue; host or cells: hemizygous Z α1-antitrypsin transgenic mice (liver, plasma)
T1 sequence (P01009 25-418 E366K): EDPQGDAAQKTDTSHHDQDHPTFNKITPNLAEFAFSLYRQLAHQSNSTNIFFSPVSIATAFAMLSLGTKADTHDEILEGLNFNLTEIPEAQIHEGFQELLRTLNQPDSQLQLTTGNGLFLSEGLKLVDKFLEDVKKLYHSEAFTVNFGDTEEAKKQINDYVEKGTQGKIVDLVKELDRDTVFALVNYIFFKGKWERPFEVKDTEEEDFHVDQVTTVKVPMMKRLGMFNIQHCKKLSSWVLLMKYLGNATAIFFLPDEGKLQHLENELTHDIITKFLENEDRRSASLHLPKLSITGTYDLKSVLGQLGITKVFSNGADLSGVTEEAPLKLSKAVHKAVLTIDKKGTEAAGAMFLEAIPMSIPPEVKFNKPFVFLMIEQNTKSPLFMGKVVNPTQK
Procedure: Since GSK716 blocks polymer formation in cells, we explored the effect of dosing GSK716 on liver polymer levels. […] GSK716 was dosed at 100 mg/kg three times a day for 20 days. […] Liver polymer levels were investigated by staining with 2C1 anti‐polymer monoclonal antibody and were scored blind by a pathologist or by quantification using an algorithm to measure all areas of positive staining (Fig EV1). There was no difference observed in total liver polymer load when assessed by manual or quantitative scoring (Fig 6B and C). There was no significant fibrosis in any of the liver sections. Intrahepatic α1‐antitrypsin was also assessed by ELISA. The vast majority (95–100%) of α1‐antitrypsin within the liver was polymer with the monomer typically being below the level of detection. Treatment with GSK716 increased the monomer measured in liver homogenate by approx. fourfold in keeping with the changes seen in blood.

Adrenergic α2C = Adrenergic α2C (Homo sapiens, UniProt P18825); assay: Off‐target panel: Adrenergic α2C (DRX); type: cell-based
Chain of Adrenergic α2C (P18825 whole entry): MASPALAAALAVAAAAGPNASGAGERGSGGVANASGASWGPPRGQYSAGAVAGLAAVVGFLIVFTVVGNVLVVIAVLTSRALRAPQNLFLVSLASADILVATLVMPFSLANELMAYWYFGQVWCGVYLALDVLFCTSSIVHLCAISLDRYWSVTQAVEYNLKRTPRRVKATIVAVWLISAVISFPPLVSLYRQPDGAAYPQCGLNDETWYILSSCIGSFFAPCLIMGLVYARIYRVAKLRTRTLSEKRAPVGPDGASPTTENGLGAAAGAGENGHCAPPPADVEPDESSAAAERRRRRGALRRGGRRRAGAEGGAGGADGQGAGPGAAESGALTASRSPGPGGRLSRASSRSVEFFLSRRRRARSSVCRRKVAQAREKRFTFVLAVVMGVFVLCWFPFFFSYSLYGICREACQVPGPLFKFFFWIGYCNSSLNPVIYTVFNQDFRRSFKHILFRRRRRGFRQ
Procedure: as §2

[2] = Oral pharmacokinetics in dog; type: in vivo; details: beagle, whole blood, ≤ 3 mg/kg, read-out: F (oral bioavailability)
Procedure: as §1, with “Male CD‐1 mice, Han Wistar rats or beagle dogs were administered GSK716 as a suspension in 1% w/v aqueous methylcellulose via oral gavage at doses of 1 mg/kg (dog) or 10, 30 and 100 mg/kg (mouse, rat).” left out

Adenosine A2a = Adenosine A2a (Homo sapiens, UniProt P29274); assay: Off‐target panel: Adenosine A2a; type: cell-based; details: Agonist, read-out: Mean (PXC50)
Chain of Adenosine A2a (P29274 whole entry): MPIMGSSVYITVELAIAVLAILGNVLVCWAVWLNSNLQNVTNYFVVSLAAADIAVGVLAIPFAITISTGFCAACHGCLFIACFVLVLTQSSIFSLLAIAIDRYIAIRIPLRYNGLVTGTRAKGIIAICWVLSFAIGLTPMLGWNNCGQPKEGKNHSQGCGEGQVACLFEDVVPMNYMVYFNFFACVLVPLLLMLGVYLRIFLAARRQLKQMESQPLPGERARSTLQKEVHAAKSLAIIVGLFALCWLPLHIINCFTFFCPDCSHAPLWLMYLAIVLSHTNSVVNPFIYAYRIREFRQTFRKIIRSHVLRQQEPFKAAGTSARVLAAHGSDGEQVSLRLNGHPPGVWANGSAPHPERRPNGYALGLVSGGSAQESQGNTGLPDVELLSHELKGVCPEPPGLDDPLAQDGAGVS
Procedure: as §2

[3] = target: L-type Ca channel (CaV1.2) (Homo sapiens, UniProt Q13936); assay: in vitro; type: cell-based
Procedure: as §2

Serotonin transporter = Serotonin transporter (Homo sapiens, UniProt P31645); assay: Off‐target panel: Serotonin transporter (DRX); type: cell-based
Chain of Serotonin transporter (P31645 whole entry): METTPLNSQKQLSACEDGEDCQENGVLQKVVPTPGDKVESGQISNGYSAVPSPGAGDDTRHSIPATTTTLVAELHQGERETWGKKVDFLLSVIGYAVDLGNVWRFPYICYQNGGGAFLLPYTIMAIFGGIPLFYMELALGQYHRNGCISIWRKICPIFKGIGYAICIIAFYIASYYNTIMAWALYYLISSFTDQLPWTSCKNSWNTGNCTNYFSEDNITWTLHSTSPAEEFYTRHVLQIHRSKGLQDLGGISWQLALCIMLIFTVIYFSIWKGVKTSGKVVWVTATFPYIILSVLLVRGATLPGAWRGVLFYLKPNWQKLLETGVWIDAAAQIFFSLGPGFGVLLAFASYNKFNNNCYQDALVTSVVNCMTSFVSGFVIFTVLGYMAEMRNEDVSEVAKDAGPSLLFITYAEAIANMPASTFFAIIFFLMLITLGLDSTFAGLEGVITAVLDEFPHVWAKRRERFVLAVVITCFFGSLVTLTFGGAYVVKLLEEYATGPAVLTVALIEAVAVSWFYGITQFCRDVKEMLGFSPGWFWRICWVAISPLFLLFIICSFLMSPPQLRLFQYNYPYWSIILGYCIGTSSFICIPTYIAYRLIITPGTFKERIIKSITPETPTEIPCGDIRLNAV
Procedure: as §2

human serum albumin = human serum albumin (Homo sapiens, UniProt P02768); type: in vitro ADME
Chain of human serum albumin (P02768 25-609): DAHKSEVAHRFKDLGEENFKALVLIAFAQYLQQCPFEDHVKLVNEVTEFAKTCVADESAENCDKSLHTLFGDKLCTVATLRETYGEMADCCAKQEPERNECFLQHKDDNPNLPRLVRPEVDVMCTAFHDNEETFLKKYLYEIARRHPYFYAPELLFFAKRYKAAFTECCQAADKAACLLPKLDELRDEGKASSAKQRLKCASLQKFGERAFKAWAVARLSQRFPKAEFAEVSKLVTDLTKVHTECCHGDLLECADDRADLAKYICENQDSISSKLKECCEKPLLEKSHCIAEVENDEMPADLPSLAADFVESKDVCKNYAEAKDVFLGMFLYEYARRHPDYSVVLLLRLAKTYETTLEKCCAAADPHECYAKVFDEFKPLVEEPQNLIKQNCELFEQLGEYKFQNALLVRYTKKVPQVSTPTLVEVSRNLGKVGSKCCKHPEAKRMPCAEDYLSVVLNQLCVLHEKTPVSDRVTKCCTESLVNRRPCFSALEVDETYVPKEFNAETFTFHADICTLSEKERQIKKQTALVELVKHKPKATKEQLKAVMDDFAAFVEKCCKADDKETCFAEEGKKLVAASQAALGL

Serotonin 5HT1B = Serotonin 5HT1B (Homo sapiens, UniProt P28222); assay: Off‐target panel: Serotonin 5HT1B (DRX); type: cell-based
Chain of Serotonin 5HT1B (P28222 whole entry): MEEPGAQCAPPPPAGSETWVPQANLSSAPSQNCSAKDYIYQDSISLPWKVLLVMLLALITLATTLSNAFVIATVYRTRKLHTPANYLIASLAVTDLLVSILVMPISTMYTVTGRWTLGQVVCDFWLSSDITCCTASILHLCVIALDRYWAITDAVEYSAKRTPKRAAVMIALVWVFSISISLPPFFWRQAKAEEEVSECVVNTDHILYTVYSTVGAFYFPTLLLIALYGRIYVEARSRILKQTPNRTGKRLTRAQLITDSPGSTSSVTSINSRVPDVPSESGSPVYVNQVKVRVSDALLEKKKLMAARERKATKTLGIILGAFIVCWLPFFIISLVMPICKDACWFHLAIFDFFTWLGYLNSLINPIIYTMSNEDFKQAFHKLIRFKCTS
Procedure: as §2

Serotonin 5HT3 [4] = target: T2, Serotonin 5HT3 (Homo sapiens, UniProt P46098); assay: Off‐target panel: Serotonin 5HT3 (DRX); type: cell-based
T2 sequence (P46098 24-478): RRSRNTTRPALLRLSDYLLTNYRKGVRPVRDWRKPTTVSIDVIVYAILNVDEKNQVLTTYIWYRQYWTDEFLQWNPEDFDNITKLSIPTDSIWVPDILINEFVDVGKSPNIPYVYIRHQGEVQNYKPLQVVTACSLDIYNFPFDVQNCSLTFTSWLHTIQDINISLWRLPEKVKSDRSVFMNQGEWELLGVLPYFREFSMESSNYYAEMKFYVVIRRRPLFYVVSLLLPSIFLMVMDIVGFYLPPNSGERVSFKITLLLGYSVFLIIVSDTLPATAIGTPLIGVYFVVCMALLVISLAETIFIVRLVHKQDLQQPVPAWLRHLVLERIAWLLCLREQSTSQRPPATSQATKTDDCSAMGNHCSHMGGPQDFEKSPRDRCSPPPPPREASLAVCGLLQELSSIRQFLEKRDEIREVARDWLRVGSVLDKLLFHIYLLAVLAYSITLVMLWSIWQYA
Procedure: as §2

Serotonin 5HT3 [5] = target: T2, Serotonin 5HT3; assay: Off‐target panel: Serotonin 5HT3; type: cell-based
Procedure: as §2

Adrenergic β2 = Adrenergic β2 (Homo sapiens, UniProt P07550); assay: Off‐target panel: Adrenergic β2; type: cell-based; details: read-out: Mean (PXC50)
Chain of Adrenergic β2 (P07550 whole entry): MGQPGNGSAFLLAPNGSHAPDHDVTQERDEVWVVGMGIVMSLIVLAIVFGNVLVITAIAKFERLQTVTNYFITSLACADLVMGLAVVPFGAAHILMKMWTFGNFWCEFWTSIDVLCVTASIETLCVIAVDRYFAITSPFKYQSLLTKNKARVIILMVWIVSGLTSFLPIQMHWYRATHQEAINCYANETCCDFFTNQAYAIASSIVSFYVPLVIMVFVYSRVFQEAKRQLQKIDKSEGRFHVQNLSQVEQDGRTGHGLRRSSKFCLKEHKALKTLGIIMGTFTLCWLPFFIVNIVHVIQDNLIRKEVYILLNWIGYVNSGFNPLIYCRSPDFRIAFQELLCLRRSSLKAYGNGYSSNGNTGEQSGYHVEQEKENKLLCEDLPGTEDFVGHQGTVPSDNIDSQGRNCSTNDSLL
Procedure: as §2

PDE4B = PDE4B (Homo sapiens, UniProt Q07343); assay: Off‐target panel: PDE4B; type: biochemical; details: Inhibition, read-out: Mean (PXC50)
Chain of PDE4B (Q07343 whole entry, species assumed): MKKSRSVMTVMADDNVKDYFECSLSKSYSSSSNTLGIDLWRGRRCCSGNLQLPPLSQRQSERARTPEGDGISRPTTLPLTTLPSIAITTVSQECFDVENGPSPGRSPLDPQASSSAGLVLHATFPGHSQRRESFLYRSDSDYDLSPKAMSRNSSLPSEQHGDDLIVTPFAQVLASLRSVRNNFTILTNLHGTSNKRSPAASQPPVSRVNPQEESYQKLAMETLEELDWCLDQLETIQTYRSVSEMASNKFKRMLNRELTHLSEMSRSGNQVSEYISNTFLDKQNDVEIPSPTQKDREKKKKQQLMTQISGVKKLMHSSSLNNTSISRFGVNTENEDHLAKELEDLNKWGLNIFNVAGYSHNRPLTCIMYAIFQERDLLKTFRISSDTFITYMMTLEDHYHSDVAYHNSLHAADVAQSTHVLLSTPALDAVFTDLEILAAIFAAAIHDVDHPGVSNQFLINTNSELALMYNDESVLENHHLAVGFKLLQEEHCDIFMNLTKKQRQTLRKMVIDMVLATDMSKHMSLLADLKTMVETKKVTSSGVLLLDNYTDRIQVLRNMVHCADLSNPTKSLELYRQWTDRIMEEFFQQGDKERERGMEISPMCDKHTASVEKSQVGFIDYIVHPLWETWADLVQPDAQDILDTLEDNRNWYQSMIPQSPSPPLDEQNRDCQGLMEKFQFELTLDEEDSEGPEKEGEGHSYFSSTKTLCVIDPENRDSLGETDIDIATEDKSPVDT
Procedure: as §2

With CCC[C@@H](NC(=O)c1cccc2c1CC(=O)N2)[C@@H](O)c1cccc(F)c1C [GSK716] the DNAUCinf in blood ([1]; single PO 10 mg/kg) was 202 ± 101, the DNAUCinf in blood ([1]; single PO 30 mg/kg) was 294 ± 47 and the DNAUCinf in blood ([1]; single PO 100 mg/kg) was 403 ± 246. The IC50 (NK1 (TACR1)) was over 25.1 µM, the EC50 (Serotonin 5HT2B) was 39.8 µM and the IC50 (KCNQ1/minK) was over 25.1 µM. The EC50 (OPRK1) was over 100 µM, the “increase of monomer measured in liver homogenate” value (α1‐antitrypsin) was “approx. fourfold” and the EC50 (Adrenergic α2C) was over 100 µM. It also gave a bioavailability [2] of 71%, an EC50 (Adenosine A2a) of over 100 µM and an IC50 [3] of under 2.14 µM. The IC50 (Serotonin transporter) was over 100 µM, the “binding to human serum albumin” value (human serum albumin) was 84.2% and the EC50 (Serotonin 5HT1B) was over 100 µM. It also gave an IC50 (Serotonin 5HT1B) of over 100 µM, an EC50 (Serotonin 5HT3 [4]) of over 50.1 µM and an IC50 (Serotonin 5HT3 [4]) of 31.6 µM. For the same compound, the EC50 (Serotonin 5HT3 [5]) was over 50.1 µM, the IC50 (Serotonin 5HT3 [5]) was 31.6 µM and the EC50 (Adrenergic β2; Agonist) was over 100 µM. The IC50 (Adrenergic β2; Antagonist) was over 100 µM and the IC50 (PDE4B) was over 100 µM.

Source: PMC7933930, “Development of a small molecule that corrects misfolding and increases secretion of Z α1‐antitrypsin” (EMBO Molecular Medicine, 2021)
